Results from patent publication US6673832B1, “Methods for identifying compounds for treating pain” (priority 1998, dated 2004).
Like-named read-outs stand apart in the source and are kept apart here. Square brackets hold non-standard residues; d marks the D form. Peptide text beside a SMILES is read from it.

Columns and labels:
[1] = system: rat sciatic nerve; experiment: Epineurial application of drug to rat sciatic nerve, spontaneous hindpaw flinching; assay type: in vivo
Text: (§1) Surgical Procedures. Adult male Sprague Dawley rats (175-225 g) were anesthetized with an intermediate-onset, short-acting volatile anesthetic (Sevaflurane, Abbott Laboratories, North Chicago, Ill.). After shaving of the hair over the left or right flank and incision of the skin, blunt dissection was made through the biceps femoris, the sciatic nerve exposed by careful microdissection away from the surrounding connective tissue, and gently elevated by insertion of a small curved hemostat placed beneath it. Following drug administration, as described below, the biceps femoris was closed with a single silk suture, and the skin closed with surgical staples.
(§2) Drug administration. The following drugs were applied epineurially: 1) 40-800 μM endothelin-1 (ET-1) (synthetic, 98% pure peptide content, American Peptides Co., Sunnyvale, Calif.); 2) the selective endothelin-A receptor antagonist, BQ-123 (American Peptides Co.; Sunnyvale, Calif.) at 3 mM; 3) the selective endothelin-B receptor antagonist, BQ-788 (American Peptides Co.; Sunnyvale, Calif.) at 3 mM; and 400 μM epinephrine (American Regent Laboratories, Inc., Shirley, N.Y.).
(§3) All drugs were dissolved in phosphate buffered saline (PBS, pH=7.4), and applied in 40 μl volumes to the epineurial surface of the exposed sciatic nerve (n=10 rats/condition). The total time for each drug application was 3-4 min. BQ-123 and BQ-788 were applied in 3 stages: 20 min prior to, 10 min prior to and 30 sec before ET-1 application. PBS was administered to control animals. Excess drug or PBS solution was absorbed by cotton gauze placed at the edge of the exposed nerve.
In experiments involving repeated administration of ET-1, animals were re-anesthetized 75-80 min after surgery (time point after which no further hindpaw flinching was observed, as described below), and 400 μM ET-1 was applied in the same volume, as described above. Behavioral evaluation was performed, as described below, for an additional 60 min.
(§4) Behavioral evaluation. […] Behavioral measurements were then performed with animals freely moving on a flat surface enclosed by an inverted large Plexiglas cage. The total number of ipsilateral and contralateral spontaneous hindpaw flinches (operationally defined as complete lifting of the hindpaw off the testing surface) were counted for consecutive 5 minute periods for a total 60 minute observation period. The total duration of hindpaw lifting and time spent exploring were also recorded.
Data Analysis. The peak frequency of hindpaw flinching, effects at 10 min post-drug administration, and area-under-the-curve (without approximation) from 0-60 min were all used to describe response-concentration functions.

[2] = system: ET-1-induced hindpaw flinching; experiment: Blockade of ET-1-induced hindpaw flinching; assay type: in vivo, rat; details: for effect on ET-1 induced hindpaw flinching: antagonist 3 mM epineurial, 20, 10 and 0 min prior to ET-1 400 μM; for significance of difference from ET-1 alone in hindpaw flinching (FIG. 3): antagonist 3 mM, 20, 10 and 0 min prior to ET-1 400 μM
Text: as §1, §2, §3
Morphine was administered systemically immediately before anesthesia (10 mg/kg, ip). Naloxone was administered systemically 20 min after the completion of ET-1 application (2 mg/kg, ip).
as §4

[3] = system: CCI rats; experiment: Thermal hyperalgesia (hindpaw withdrawal latency) after sciatic nerve CCI; assay type: in vivo, rat
Experimental: (§5) CCI surgery. The sciatic nerve of a rat was exposed after blunt dissection of the biceps femoris. Four chromic gut ligatures (4-0) were placed around a […] section of sciatic nerve in the mid-thigh region. The ligatures were applied so that they constricted the diameter of the nerve just enough to impede circulation through the superficial vasculature (as visualized under an operating microscope at 40×). Sham-operated rats received an identical exposure of the left sciatic nerve without CCI. A coding system blinded the investigators to the nature of the surgery performed on individual rats.
Dexamethasone inhibits CCI-induced pain sensitivity. […] Thermal hyperalgesia was defined as a reduction in the latency to hindpaw withdrawal during a thermal stimulus applied to the plantar surface. […] Presumably, chemotactic signals overwhelmed the effects of DEX by 10 days to account for differences from baseline and between hindpaws at this timepoint (FIG. 8B).

[4] = system: sciatic nerve in rats with a chronic constriction injury; experiment: Leukocytic profiles in sciatic nerve sections after CCI; assay type: in vivo, rat
Experimental: as §5
Histology. To compare the extent and type of cellular inflammation around the peripheral nerve due to CCI between DEX- and saline-treated rats, the ligated sciatic nerve was processed for histological analysis. At 3, 5, 7, and 10 days post-CCI, animals were euthanized with 100 mg/kg intraperitoneal sodium pentobarbital, and then transcardially perfused first with 50 ml of cold 0.9% NaCl, 1 ml/g body weight of 4% paraformaldehyde in 0.01 M phosphate buffered saline, pH 7.4 (PBS). A 2-3 cm section of sciatic nerve, or a 1 cm section of L5 and L6 spinal nerves, which included material at the ligation site, as well as that just proximal and distal to ligation, was placed in 0.01 M PBS, 4% paraformaldehyde to post-fix for 2 hours. Tissue was then embedded in paraffin, cut in 10-30 μm sections on a vibratome, and placed on glass slides. Slides were deparaffinized and then hydrated in distilled water prior to staining in freshly filtered Harris' hematoxylin for 6-15 min. After washing in running tap water for 2-5 min, sections were differentiated in 1% acid alcohol, washed briefly in tap water, and then placed in weak ammonia water until sections are bright blue. The sections were then washed thoroughly in running tap water, transferred to 80% ethanol, and then counterstained in eosin-phloxine solution prior to dehydration and mounting with Permount.
Quantitation of leukocytes in nerve sections. To detect leukocytes in injured peripheral nerve, both cellular and […] were used. To be included in the leukocyte cell count, leukocytes had to 1) have a nucleus which was clearly visible and characteristic of an infiltrating macrophage (bean-shaped nucleus), neutrophil (polymorphic nucleus) or lymphocyte (dense nucleus that fills the cytoplasm); 2) have a “foamy” macrophage appearance typical of a myelin-ingesting phagocytes; and 3) be present within the endoneurial space. Cells present within vascular spaces or containing nuclei that could not be clearly differentiated from activated Schwann cells, fibroblasts or endothelial cells were not counted.

[5] = system: E1A cells; experiment: Microfluorometry (Fura-2) of intracellular calcium in E1A cells; assay type: cell-based, rat
Experimental: Microfluorometry in E1A cells. E1A cells (retrovirally-transformed rat dorsal root ganglion cells) were grown as a monolayer on poly-L-lysine coated coverslips in Dulbecco's modified eagle media supplemented with 10% fetal bovine serum at 37° C. in a humified atmosphere (5% CO2−95% air). Cells were used 48-72 hours after plating, at a confluence of 75 to 90%. The concentration of intracellular calcium was determined by dual excitation microfluorometry, using the calcium sensitive dye Fura-2 (Grynkiewicz, et.al., J. Biol. Chem. 260: 3440-3450, 1985). E1A cells were washed once with D-PBS (with Ca^++) and then incubated for 30 min at room temperature in D-PBS (with Ca^++) containing 7.5 μM Fura-2/AM and 0.00125% (wt/vol) pluronic-DMSO. The cells were then washed twice in D-PBS (with Ca^++) and incubated for an additional 30 minutes to allow cleavage of the Fura-2/AM to the active Fura-2.
Experiments were conducted with the coverslips in a perfusion chamber of 0.4 ml, with a constant flow rate of 4 ml/min. Each coverslip was equilibrated in D-PBS for 2 min prior to beginning an experiment. […]
Microfluorometry was performed with an inverted epifluoroscence microscope connected to a light source which provided two alternating wavelengths (Photon Technology International Deltascan). […] Background fluorescence was subtracted from each trial.

[6] = system: circulating leukocytes; details: for Mean number of leukocytes: cyclophosphamide 100 mg/kg
Text: Complete blood counts were serially determined on all animals receiving treatments.

[7] = system: normal rats; details: cyclophosphamide treatment, FIGS. 11A and B
Experimental: For these experiments only, different groups of treated animals were tested (alternating fashion) on each test day to limit the amount of blood drawn.

[8] = naloxone 2 mg/kg ip, 20 min after ET-1

CNC[C@H](O)c1ccc(O)c(O)c1 [epinephrine]
hindpaw flinching after epinephrine applied to sciatic nerve ([1]; 400 μM, 60 min observation period): no evidence of hindpaw flinching

CCCC[C@@H](NC(=O)[C@@H](Cc1cn(C(=O)OC)c2ccccc12)NC(=O)[C@H](CC(C)(C)C)NC(=O)N1[C@H](C)CCC[C@@H]1C)C(=O)O [BQ-788]
effect on ET-1 induced hindpaw flinching [2]: reduced hindpaw flinching significantly only at the 40 and 45 min timepoints
significance of difference from ET-1 alone in hindpaw flinching (FIG. 3) [2]: significant at 45 and 50 min

C[C@@H]1C[C@H]2[C@@H]3CCC4=CC(=O)C=C[C@]4(C)[C@@]3(F)[C@@H](O)C[C@]2(C)[C@@]1(O)C(=O)CO [DEX, Dexamethasone]
period post-CCI with differences from baseline and contralateral hindpaw eliminated ([3]; DEX 1.5 mg/kg i.p. daily): 3 to 7 days
Number of leukocytic profiles in sciatic nerve ([4]; 3 days post-CCI, six high-power fields (0.238 mm^2), mean ± S.D.): 4.2 ± 0.92
Number of leukocytic profiles in sciatic nerve ([4]; 5 days post-CCI, six high-power fields, n = 1): 12.8
Number of leukocytic profiles in sciatic nerve ([4]; 7 days post-CCI, six high-power fields, mean ± S.D.): 23.3 ± 26.9
Number of leukocytic profiles in sciatic nerve ([4]; 10 days post-CCI, six high-power fields, mean ± S.D.): 25.7 ± .9

CC(C)C[C@@H]1NC(=O)[C@@H](C(C)C)NC(=O)[C@@H]2CCCN2C(=O)[C@@H](CC(=O)O)NC(=O)[C@@H](Cc2c[nH]c3ccccc23)NC1=O [BQ-123] (cyclo(L[dW][dD]P[dV]))
effect on ET-1 induced hindpaw flinching [2]: completely blocked
significance of difference from ET-1 alone in hindpaw flinching (FIG. 3) [2]: significant at every time point after 5 min

endothelin-1 [ET-1]
time of peak of flinching behavior and postural changes ([1]; 400 μM ET-1): ≤ 30 min
repetitive, spontaneous hindpaw flinching ([1]; 400 μM ET-1, 40 μl epineurial, 10-60 min post-administration, vs PBS): increased
effect at high concentration on hindpaw flinching ([1]; 800 μM): apparent inhibitory effect
concentration giving maximum frequency of hindpaw flinching ([1]; 40-800 μM tested): 400 µM
EC50 ([1]; 10 minutes post ET-1 administration, FIG. 4B, read-out: concentration of half-maximal effect on hindpaw flinching): 300 µM
hindpaw flinching and postural changes after application onto or into muscles surrounding sciatic nerve ([1]; same concentration of ET-1, muscle not nerve): neither increased hindpaw flinching nor postural changes
hindpaw flinching after second (repeat) treatment ([1]; second 400 μM ET-1, 15-20 min after first 60 min testing period): did not produce hindpaw flinching that was significantly different from controls
intracellular Ca++ level reached after ET-1 ([5]; 400 μl pulse of 13.5 μM ET-1, resting level 50-100 nM): ~500 nM
Fura-2 fluorescence during ET-1 administration ([5]; E1A cells, FIG. 7): large, rapid, and transient increase

C=CCN1CC[C@]23c4c5ccc(O)c4O[C@H]2C(=O)CC[C@@]3(O)[C@H]1C5 [Naloxone]
duration of reversal of the effect of morphine [2, 8]: approximately 10 min
reversal of the effect of morphine on ET-1-induced flinching [2, 8]: rapidly reversed the effect of morphine

CN1CC[C@]23c4c5ccc(O)c4O[C@H]2[C@@H](O)C=C[C@H]3[C@H]1C5 [morphine]
effect on flinching induced by ET-1 ([2]; morphine 10 mg/kg ip immediately before anesthesia, ET-1 400 μM): completely blocked

O=P1(N(CCCl)CCCl)NCCCO1 (centres unmarked) [Cyclophosphamide, cyclophosphamide]
effect on hyperalgesia response in CCI-treated rats ([3]; CYCLO 100 mg/kg alternate days×3 prior to CCI, until leukocyte counts returned toward normal 10 days post-surgery): blocked the hyperalgesia response
effect on circulating leukocyte numbers ([6]; 100 mg/kg on alternate days×3 days, pre-operatively): markedly reduced
Mean number of leukocytes ([6]; 1 day): 0.4 ± 0.1 10^3/ml
Mean number of leukocytes ([6]; 3 days): 1.0 ± 0.3 10^3/ml
Mean number of leukocytes ([6]; 5 days): 0.5 ± 0.4 10^3/ml
Mean number of leukocytes ([6]; 8 days): 4.6 ± .6 10^3/ml
Mean number of leukocytes ([6]; 10 days): 7.3 ± 1.8 10^3/ml
Mean number of leukocytes ([6]; Baseline): 9.2 ± 0.7 10^3/ml
Total white blood cell counts ([6]; CYCLO-treated CCI rats, normal rats approximately 9×10^3): < 1000 µL⁻¹
analgesic effect with respect to thermal pain stimulation in normal animals [7]: no analgesic effects
